Key:
Type in all cases: in vivo, human
[1] = system: Japanese and Caucasian healthy subjects; assay: LDL determination, Study 3 (healthy volunteers); details: for [LDL] % Mean % variation vs baseline 10 days: 200 mg q.d.; for [LDL] levels: Study 3
Method: Randomized, double-blind, placebo-controlled study for the assessment of safety, tolerability, pharmacokinetics, and pharmacodynamics, of multiple oral doses of Compound 1 (dosed as a [Compound 1:HCl:3H2O]) in Japanese and Caucasian healthy subjects.
Randomized, double-blind, placebo-controlled, single center, sequential design study.
Compound 1 (dosed as a [Compound 1:HCl:3H2O]) is administered for 10 days as oral film-coated tablet (25 and 100 mg and matching placebos). Placebo are provided as a matching tablet.
The study drug is ingested with 240 mL water after a standardized breakfast on Days 2-9. On PK days (Day 1 and Day 10) the study drug is administered in a fasted state (subjects will receive lunch 4 h after dosing on Day 1 and Day 10).
10 Japanese subjects (6 active, 4 placebo) and 10 Caucasian subjects (6 active, 4 placebo) will receive once daily an oral dose of 200 mg Compound 1 (dosed as a [Compound 1:HCl:3H2O]) or matching placebo as two tablets of 100 mg or matching placebo for 10 days. For practical reasons, these subjects may be split over separate groups, each group consisting of an equal number of Japanese and Caucasian Compound 1 (dosed as a [Compound 1:HCl:3H2O]) treated subjects and Japanese and Caucasian placebo subjects.
The determination of [LDL]-cholesterol is made using an automated method taking advantage of the selective micellary solubilization of [LDL]-cholesterol by a nonionic detergent and the interaction of a sugar compound and lipoproteins (VLDL and chylomicrons).
When a detergent is included in the enzymatic method for cholesterol determination (cholesterol esterase, cholesterol oxidase coupling reaction), the relative reactivities of cholesterol in the lipoprotein fractions increase in this order: [HDL]<chylomicrons <VLDL <[LDL]. In the presence of Mg^2+, a sugar compound markedly reduces the enzymatic reaction of the cholesterol measurement in VLDL and chylomicrons. The combination of a sugar compound with detergent enables the selective determination of [LDL]-cholesterol in serum. (Friedewald et al., 1972; Rifai et al., 1992)
Homogeneous enzymatic colorimetric assay.
In the presence of peroxidase, the hydrogen peroxide generated reacts with 4-aminoantipyrine and Sodium N-(2-hydroxy-3-sulfopropyl)-3,5-dimethoxyaniline (HSDA) to form a purple-blue dye.
The color intensity of this dye is directly proportional to the cholesterol concentration and is measured photometrically.
Human serum and plasma samples [LDL] determination was done on a Roche/Hitachi Cobas c 701/702 system which automatically calculate the analyte concentration of each sample. Samples containing precipitates are centrifuged before performing the assay.

RA patients [2] = assay: CRP analysis (immunoturbidimetric assay), Study 2; details: 50 mg q.d.
Method: Double-blind, placebo-controlled, monotherapy study in subjects with moderately to severely active RA who have an inadequate response to methotrexate (MTX) (oral or parenteral).
Twelve weeks of treatment with Compound 1 (dosed as a [Compound 1:HCl:3H2O]) at 50 mg, 100 mg, or 200 mg q.d.; or placebo. At Week 12, all subjects on placebo and the subjects on the 50 mg dose who have not achieved 20% improvement in swollen joint count (SJC66) and tender joint count (TJC68) will be assigned to 100 mg q.d. in a blinded fashion and will continue treatment until Week 24. Subjects in the other groups will maintain their randomized treatment until Week 24.
The determination of CRP is made using Immunoturbidimetric assay for the in vitro quantitative determination of CRP in human serum and plasma on Roche/Hitachi cobas c systems, wherein human CRP agglutinates with latex particles coated with monoclonal anti-CRP antibodies. The aggregates are determined turbidimetrically (Eda et al., 1998; Price et al., 1987).
Human serum and plasma samples [CRP] determination was done on a Roche/Hitachi Cobas c 301 c 501/502 system which automatically calculate the analyte concentration of each sample. Samples containing precipitates are centrifuged before performing the assay.
The Hommel-corrected p-value for the pairwise comparisons of each group with placebo is shown. […]

RA patients [3] = assay: Plasma total cholesterol level (Selectra autoanalyzer), Study 4; details: for Total cholesterol level, 4 weeks CFB: 4 weeks change from baseline
Method: (§1) Randomized double-blind, placebo-controlled add on study in subjects with active RA who have an inadequate response to MTX monotherapy, in combination with methotrexate, administered for 4 weeks in the treatment of subjects with active rheumatoid arthritis who have an inadequate response to methotrexate alone.
(§2) Compound 1 (dosed as a [Compound 1:HCl:3H2O]) capsules administered orally in 30 mg, 75 mg, 150 mg, or 300 mg doses per day for 4 weeks.
Triglycerides, [HDL] cholesterol, and plasma cholesterol were measured on the Selectra autoanalyzer (Sopachem BV, 44-RI Straat 33, 4051 AP Ochten, The Netherlands). All assays were commercially available from DiaSys Diagnostic Systems GmbH, Alte Strasse 9, 65558 Holzheim, Germany. […]

RA patients [4] = assay: [HDL] cholesterol level (Selectra autoanalyzer), Study 4; details: for HDL level, 4 weeks CFB: 4 weeks change from baseline
Method: as §1, §2
Triglycerides, [HDL] cholesterol, and plasma cholesterol were measured on the Selectra autoanalyzer (Sopachem BV, 44-RI Straat 33, 4051 AP Ochten, The Netherlands). All assays were commercially available from DiaSys Diagnostic Systems GmbH, Alte Strasse 9, 65558 Holzheim, Germany.

## O=C(Nc1nc2cccc(-c3ccc(CN4CCS(=O)(=O)CC4)cc3)n2n1)C1CC1 [Compound 1, cyclopropanecarboxylic acid {5-[4-(1,1-dioxo-thiomorpholin-4-ylmethyl)-phenyl]-[1,2,4]triazolo[1,5-a]pyridin-2yl}-amide]
[1]; Caucasian
  [LDL] % Mean % variation vs baseline 10 days: −1.3%
[1]; Japanese
  [LDL] % Mean % variation vs baseline 10 days: −8.9%
[1]; Caucasian 200 mg q.d. for 10 days, day 17
  [LDL] levels: 2.5 mmol/L
[1]; Caucasian 200 mg q.d., day 0
  [LDL] levels: 2.6 mmol/L
[1]; Caucasian 200 mg q.d., day 5
  [LDL] levels: 2.6 mmol/L
[1]; Caucasian 200 mg q.d., day 10
  [LDL] levels: 2.4 mmol/L
[1]; Japanese 200 mg q.d. for 10 days, day 17
  [LDL] levels: 2.7 mmol/L
[1]; Japanese 200 mg q.d., day 0
  [LDL] levels: 2.7 mmol/L
[1]; Japanese 200 mg q.d., day 5
  [LDL] levels: 2.5 mmol/L
[1]; Japanese 200 mg q.d., day 10
  [LDL] levels: 2.5 mmol/L
RA patients [2]; week 1
  CRP mean CFB (LOCF): -3.70 mg/L
RA patients [2]; week 12
  CRP mean CFB (LOCF): -4.43 mg/L
RA patients [3]; 30 mg q.d.
  Total cholesterol level, 4 weeks CFB: 25.9%
  Total cholesterol level, Baseline: 4.9 mM
  Total cholesterol level, week 4: 5.8 mM
RA patients [3]; 75 mg q.d.
  Total cholesterol level, 4 weeks CFB: 5.2%
  Total cholesterol level, Baseline: 4.9 mM
  Total cholesterol level, week 4: 5.1 mM
RA patients [3]; 150 mg q.d.
  Total cholesterol level, 4 weeks CFB: −1.2%
  Total cholesterol level, Baseline: 5 mM
  Total cholesterol level, week 4: 5 mM
RA patients [3]; 300 mg q.d.
  Total cholesterol level, 4 weeks CFB: 19.4%
  Total cholesterol level, Baseline: 4.7 mM
  Total cholesterol level, week 4: 5.7 mM
RA patients [4]; 30 mg q.d.
  HDL level, 4 weeks CFB: 6.7%
  HDL level, Baseline: 0.9 mM
  HDL level, week 4: 1 mM
RA patients [4]; 75 mg q.d.
  HDL level, 4 weeks CFB: 13.7%
  HDL level, Baseline: 1 mM
  HDL level, week 4: 1.1 mM
RA patients [4]; 150 mg q.d.
  HDL level, 4 weeks CFB: 10.7%
  HDL level, Baseline: 1 mM
  HDL level, week 4: 1.1 mM
RA patients [4]; 300 mg q.d.
  HDL level, 4 weeks CFB: 46.0%
  HDL level, Baseline: 1 mM
  HDL level, week 4: 1.4 mM

Reference: patent publication US10376520B2, “Methods for the treatment of cardiovascular disorders” (Galapagos NV, priority 2015, dated 2019)
